Test results reported in PMC10223347, “Acute Toxicity and Pharmacokinetic Profile of an EU-GMP-Certified Cannabis sativa L. in Rodents” (Pharmaceuticals, 2023).

Columns and labels:
[1] = Pharmacokinetic profile: cannabinoids in rat serum by LC-MS/MS, non-compartmental analysis; settings: for Tmax / AUC Inf / AUC Last / Cl / Cmax / T1/2 / Vd: rat serum; for amount identified and quantitated in serum samples: rats given doses of 5, 50, 300 and 600 mg/kg, LC-MS
Protocol: The pharmacokinetic profile of the EU-GMP-certified Cannabis sativa L. with 15.6% THC and <1% CBD was assessed using 4 dose levels, 5, 50, 300, and 600 mg/kg. Dose levels were chosen in accordance with OECD 417 guidelines being lower than 1000 mg/kg but still high enough to allow for the identification and measurement of natural cannabinoids in the serum. Each dose level group consisted of 6 female Sprague-Dawley rats (8–12 weeks, 200–300 g) housed, cared and treated in the same conditions as the animals involved in the acute toxicity study. After gavage delivery of the compound, blood samples were collected, through a cardiac puncture, at 15 min, 30 min, 1 h, 2 h, 3 h, 4 h, 8 h, 12 h, 24 h, 48 h, and 72 h, respectively. The collected blood samples were then allowed to clot for 30 min at room temperature and centrifuged at 2000× g for 15 min at 4 °C. The separated serum samples were transferred immediately in microcentrifuge tubes and stored at −20 °C until THC and THCA quantification using LC-MS analysis were performed.
A method for simultaneous extraction and LC-MS/MS quantitation of 11 cannabinoids was developed and validated for the present study. Cannabinoid extraction from rat serum was performed according to the method described by Wakshlag et al., with modifications. Rat serum (40 μL) was mixed with 10 μL water: methanol (1:1) and 10 μL internal standard (200 ng/mL of CBD-d3) diluted in water: methanol (1:1). Proteins were precipitated by adding 80 μL ice-cold acetonitrile to each sample followed by vortex 2 min at 6 °C, 1000 rpm and centrifugation at 4000 rpm for 10 min at 4 °C. The supernatant (100 μL) was mixed with ultrapure water (100 μL) in another 1.5 mL microcentrifuge tube and centrifuged again at 4000 rpm for 10 min at 4 °C. The supernatant (100 μL) was transferred to another 1.5 mL microcentrifuge tube and placed in ice until LCMS analysis. Ten μL of the sample were injected into a Phenomenex Kinetex C18 (100 × 4.6 mm, 2.6 μm, 100 Å) HPLC separation column connected in the column compartment of an Agilent 1200 HPLC coupled to an Agilent 6410 electrospray-triple quadrupole mass spectrometer. A 10:1 post-column splitter was used. The column was equilibrated with mobile phase A (0.1% formic acid in water) and mobile phase B (0.1% formic acid in acetonitrile) at 50% B for 1 min. A linear gradient from 50% B to 90% B for 3 min was used and was held constant at 90% B for 6 min, then decreased to 50% B in 1 min and maintained at 50% B for 5 min. The flow rate was […], and the column temperature was 24 °C.
The mass spectrometer was operated in positive mode. The source parameters were a capillary voltage of 4000 V, a gas of temperature 325 °C, a gas flow of 8 L/min, and a nebulizer of 35 psi. The parameters of the mass spectrometer for each time and scan segment and the retention time for each compound are presented in Table 3.
The qualitative analysis of the chromatograms and mass spectra was performed by Agilent MassHunter Workstation Software Qualitative Analysis v.B.01.02 and the quantitative analysis by Agilent MassHunter Workstation Software Quantitative Analysis v.B.01.03. Linear calibration curves were obtained for all 11 cannabinoids using the relative response (peak area of each cannabinoid/peak area of internal standard) and the relative concentration (concentration of each cannabinoid/concentration of internal standard). A linear 7-point calibration curve with 1/×2 weighing and a concentration range of 5–1000 ng/mL in rat serum was employed for the quantitation of the serum samples collected in the present study. The analysis of carryover was performed by LC/MS analysis of a blank sample extracted from normal rat serum after LC/MS analysis of a sample extracted from rat serum fortified with 1000 ng/mL natural cannabinoids.

Scn1A mice = system: Scn1A mice; set-up: method as in PMID 34384142; settings: cited from earlier work
[2] = system: seizure models with electric shocks; set-up: method as in PMID 34384142; settings: doses of 10 and 30 mg/kg; cited from earlier work
CB2 [3] = system: CB2; set-up: method as in PMID 28861508; settings: relative to THC; cited from earlier work
CB1 [4] = system: CB1; set-up: method as in PMID 28861508; settings: suggests a weak agonist activity; cited from earlier work
CB1 [5] = system: CB1; set-up: method as in PMID 28861508; settings: relative to THC; cited from earlier work
CB2 [6] = system: CB2; set-up: method as in PMID 28861508; settings: cited from earlier work
[7] = oral 5 mg/kg Cannabixir Medium Flos (0.78 mg Δ9-THCA-A + Δ9-THC)
[8] = oral 50 mg/kg Cannabixir Medium Flos (7.8 mg Δ9-THCA-A + Δ9-THC)
[9] = oral 300 mg/kg Cannabixir Medium Flos (46.8 mg Δ9-THCA-A + Δ9-THC)
[10] = oral 600 mg/kg Cannabixir Medium Flos (93.6 mg Δ9-THCA-A + Δ9-THC)

For `CCCCCc1cc(O)c2c(c1)OC(C)(C)[C@@H]1CCC(C)=C[C@@H]21` [Δ9-THC, Δ9-tetrahydrocannabinol], the Tmax [1, 7] was 0 h, the Tmax [1, 8] was 0 h and the “AUC Inf” value [1, 9] was “BQL”. For the same compound, the “AUC Last” value [1, 9] was “BQL”, the Cl [1, 9] was “BQL” and the Cmax [1, 9] was “BQL”. The T1/2 [1, 9] was “BQL”, the Tmax [1, 9] was “BQL” and the Vd [1, 9] was “BQL”. For the same compound, the “AUC Inf” value [1, 10] was 287.2334 ng·h/mL, the “AUC Last” value [1, 10] was 284.342 ng·h/mL and the Cl [1, 10] was 5431.12 mL/min/kg. The Cmax [1, 10] was 34.916 ng/mL, the T1/2 [1, 10] was 7.080 h and the Tmax [1, 10] was 0.25 h. For the same compound, the Vd [1, 10] was 3328.818 L/kg and the “amount identified and quantitated in serum samples” value (“amount identified and quantitated” below) [1] was “low amounts”.

In the case of `CCCc1cc2c(c(O)c1C(=O)O)C=CC(C)(CCC=C(C)C)O2` (stereo not drawn) [CBCVA, cannabichromevarinic acid], the frequency of convulsions (Scn1A mice) is listed as “increase frequency of convulsions”.

For `CCCCCc1cc(O)c(C/C=C(\C)CCC=C(C)C)c(O)c1` [CBG, Cannabigerol], the frequency of convulsions (Scn1A mice) is listed as “increase frequency of convulsions”.

For `CCCCCc1cc(O)c(C/C=C(\C)CCC=C(C)C)c(O)c1C(=O)O` [CBGA, cannabigerolic acid], the frequency of convulsions (Scn1A mice) is listed as “increase frequency of convulsions”, the “amount identified and quantitated” value [1] is listed as “high amounts” and the “effect on seizure models with electric shocks” value [2] is listed as “pro-convulsive”.

In the case of `CCCCCc1cc2c(c(O)c1C(=O)O)C=CC(C)(CCC=C(C)C)O2` (stereo not drawn) [CBCA, cannabichromenic acid], the “amount identified and quantitated” value [1] is reported as “low amounts”.

In the case of `CCCCCc1cc2c(c(O)c1C(=O)O)C1C=C(C)CCC1C(C)(C)O2` (stereo not drawn) [Δ9-THCA-A, Δ9-tetrahydrocannabinolic acid], the “binding for CB2, times smaller than THC” value (CB2 [3]) is listed as no less than 125 times, the “efficacy at CB1 (AMPc)” value (CB1 [4]) is listed as “slightly inhibited AMPc” and the “AUC Inf” value [1, 7] is listed as 260.802 ng·h/mL. For the same compound, the “AUC Last” value [1, 7] was 197.236 ng·h/mL, the Cmax [1, 7] was 42.425 ng/mL and the T1/2 [1, 7] was 5.3374 h. For the same compound, the Tmax [1, 7] was 3 h, the Vd [1, 7] was 23.0298 L/kg and the “AUC Inf” value [1, 8] was 3172.8488 ng·h/mL. The “AUC Last” value [1, 8] was 3163.1937 ng·h/mL, the Cl [1, 8] was 40.972 mL/min/kg and the Cmax [1, 8] was 404.16 ng/mL. It also gave a T1/2 [1, 8] of 5.4189 h, a Tmax [1, 8] of 3 h and a Vd [1, 8] of 19.2193 L/kg. The “AUC Inf” value [1, 9] was 13,544.792 h*ng/mL, the “AUC Last” value [1, 9] was 13,323.57 h*ng/mL and the Cl [1, 9] was 57.587 mL/min/kg. It also gave a Cmax [1, 9] of 2787.617 ng/mL, a T1/2 [1, 9] of 10.291 h and a Tmax [1, 9] of 0.5 h. For the same compound, the Vd [1, 9] was 51.298 L/kg, the “AUC Inf” value [1, 10] was 43,261.689 h*ng/mL and the “AUC Last” value [1, 10] was 40,371.48 h*ng/mL. The Cl [1, 10] was 36.058 mL/min/kg, the Cmax [1, 10] was 10,563.4 ng/mL and the T1/2 [1, 10] was 10.988 h. The Tmax [1, 10] was 0.25 h, the Vd [1, 10] was 34.298 L/kg and the “amount identified and quantitated” value [1] was “high amounts”. For the same compound, the “binding for CB1, times smaller than that of THC” value (CB1 [5]) was “at least 62 times” and the “efficacy for CB2” value (CB2 [6]) was “no efficacy”.

For `C=C(C)[C@@H]1CCC(C)=C[C@H]1c1c(O)cc(CCCCC)c(C(=O)O)c1O` [CBDA, cannabidiolic acid], the “amount identified and quantitated” value [1] was “low amounts”.

For `C=C(C)[C@@H]1CCC(C)=C[C@H]1c1c(O)cc(CCC)c(C(=O)O)c1O` [CBDVA, cannabidivarinic acid], the frequency of convulsions (Scn1A mice) is given as “increase frequency of convulsions”.
